Test results taken from ChEMBL document CHEMBL6109153, “Development of Membrane-Targeting Osthole Derivatives Containing Pyridinium Quaternary Ammonium Moieties with Potent Anti-Methicillin-Resistant Staphylococcus aureus Properties” (J Med Chem, 2025).
Activity calls are given as the source filed them. The calls are words filed in the database; no cut-off is given here.

Columns and labels:
[1] = system: Staphylococcus aureus; assay: Antibacterial activity against methicillin-resistant Staphylococcus aureus M16 incubated for 16 to 20 hrs by broth microdilution method; format: functional; conditions: time 16-20 hrs
[2] = Cytotoxicity against human L02 cells assessed as cell survival rate at 32 times MIC incubated for 24 hrs by CCK8 assay; format: toxicity, cell-based; conditions: read-out: Survival
[3] = system: Staphylococcus aureus; assay: Depolarization of cell membrane in methicillin-resistant Staphylococcus aureus M11 assessed as increase in fluorescence intensity incubated for 30 mins by DiSC3(5) dye based analysis; format: functional, organism-based
[4] = system: Staphylococcus aureus; assay: Antibacterial activity against methicillin-resistant Staphylococcus aureus M22 incubated for 16 to 20 hrs by broth microdilution method; format: functional; conditions: time 16-20 hrs
[5] = system: Staphylococcus aureus; assay: Induction of ROS production in methicillin-resistant Staphylococcus aureus M11 assessed as fold increase at 32 ug/ml incubated for 1 hr by DCFH-DA probe based analysis relative to control; format: functional; conditions: dose 32 µg/ml
[6] = system: Staphylococcus aureus; assay: Antibacterial activity against methicillin-resistant Staphylococcus aureus M11 infected in BALB/c mouse model of Sepsis assessed as reduction in swelling in inner epidermal abscesses at 4 mg/kg measured after 24 hrs; format: functional, organism-based
[7] = system: Staphylococcus aureus; assay: Antibacterial activity against methicillin-resistant Staphylococcus aureus M11 up to 128 ug/ml in presence of 128 ug/ml peptidoglycan incubated for 16 to 18 hrs; format: functional; conditions: dose <= 128 µg/ml, time 16-18 hrs
[8] = Toxicity in BALB/c mouse assessed as lesions in tissues of organs at 10 mg/kg, ip measured for 7 days by H and E staining based analysis; format: organism-based; conditions: in vivo, 168 h, time 7 day
[9] = system: Staphylococcus aureus; assay: Antibacterial activity against methicillin-resistant Staphylococcus aureus M11 infected in BALB/c mouse model of Sepsis measured after 24 hrs; format: functional, organism-based; conditions: dose 4-8 mg/kg
[10] = Toxicity in BALB/c mouse assessed as adverse reactions at 5 to 40 mg/kg, ip measured for 7 days; format: organism-based; conditions: in vivo, 168 h, dose 5-40 mg/kg, time 7 day
[11] = Toxicity in BALB/c mouse assessed as change in serum biochemical parameters at 10 mg/kg, ip measured for 7 days; format: organism-based; conditions: in vivo, 168 h, time 7 day
[12] = system: Staphylococcus aureus; assay: Antibacterial activity against methicillin-resistant Staphylococcus aureus M11 infected in BALB/c mouse model of Sepsis assessed as reduction in bacterial load in skin tissues at 4 mg/kg measured after 24 hrs; format: functional
[13] = system: Staphylococcus aureus; assay: Antibacterial activity against methicillin-resistant Staphylococcus aureus M12 incubated for 16 to 20 hrs by broth microdilution method; format: functional; conditions: time 16-20 hrs
[14] = Toxicity in BALB/c mouse assessed as maximum safe dose administered intraperitoneally measured for 7 days; conditions: in vivo, route ip, time 7 day
[15] = Toxicity in BALB/c mouse model of Sepsis infected with methicillin-resistant Staphylococcus aureus M11 assessed as pathological change in kidney at 4 to 8 mg/kg measured after 24 hrs by H and E staining based analysis; format: organism-based; conditions: in vivo, dose 4-8 mg/kg
[16] = Toxicity in BALB/c mouse model of Sepsis infected with methicillin-resistant Staphylococcus aureus M11 assessed as lesions in liver at 4 to 8 mg/kg measured after 24 hrs by H and E staining based analysis; format: organism-based; conditions: in vivo, dose 4-8 mg/kg
[17] = system: Staphylococcus aureus; assay: Induction of ROS production in methicillin-resistant Staphylococcus aureus M11 incubated for 1 hr by DCFH-DA probe based analysis; format: functional, organism-based; conditions: dose <= 32.0 µg/ml
[18] = system: Staphylococcus aureus; assay: Antibacterial activity against Staphylococcus aureus ATCC 29213 incubated for 16 to 20 hrs by broth microdilution method; format: functional; conditions: time 16-20 hrs
[19] = system: Staphylococcus aureus; assay: Disruption of cell membrane in methicillin-resistant Staphylococcus aureus M11 assessed as fold increase in DNA leakage at 4 ug/ml incubated for 4 hrs by micro-spectrophotometric analysis relative to control; format: functional; conditions: dose 4 µg/ml
[20] = system: Staphylococcus aureus; assay: Antibacterial activity against methicillin-resistant Staphylococcus aureus M14 incubated for 16 to 20 hrs by broth microdilution method; format: functional; conditions: time 16-20 hrs
[21] = Toxicity in KM mouse assessed as erythema on dorsal skin at 30 mg/kg, sc; format: organism-based; conditions: in vivo
[22] = system: Staphylococcus aureus; assay: Antibacterial activity against methicillin-resistant Staphylococcus aureus M11 up to 128 ug/ml in presence of 32 ug/ml cardiolipin incubated for 16 to 18 hrs; format: functional; conditions: dose <= 128 µg/ml, time 16-18 hrs
[23] = system: Staphylococcus aureus; assay: Antibacterial activity against methicillin-resistant Staphylococcus aureus M11 infected in BALB/c mouse model of Sepsis assessed as reduction in inflammatory cell infiltration in skin tissues at 4 to 8 mg/kg measured after 24 hrs by H and E staining based analysis; format: functional, organism-based; conditions: dose 4-8 mg/kg
[24] = system: Staphylococcus aureus; assay: Antibacterial activity against methicillin-resistant Staphylococcus aureus M11 infected in BALB/c mouse model of Sepsis assessed as reduction in IL-6 level measured after 24 hrs; format: functional, organism-based; conditions: dose 4-8 mg/kg
[25] = system: Staphylococcus aureus; assay: Antibacterial activity against methicillin-resistant Staphylococcus aureus M20 incubated for 16 to 20 hrs by broth microdilution method; format: functional; conditions: time 16-20 hrs
[26] = system: Staphylococcus aureus; assay: Antibacterial activity against methicillin-resistant Staphylococcus aureus M11 infected in BALB/c mouse model of Sepsis assessed as reduction in bacterial count in skin tissues at 8 mg/kg measured after 24 hrs relative to control; format: functional; set-up: scale not given: the % may be the effect or the level left
[27] = system: Staphylococcus aureus; assay: Antibacterial activity against methicillin-resistant Staphylococcus aureus M23 incubated for 16 to 20 hrs by broth microdilution method; format: functional; conditions: time 16-20 hrs
[28] = system: Staphylococcus aureus; assay: Bactericidal activity against methicillin-resistant Staphylococcus aureus M11 at 8 ug/ml measured up to 6 hrs in presence of 50% plasma; format: functional, organism-based; conditions: dose 8.0 µg/ml
[29] = Toxicity in BALB/c mouse model of Sepsis infected with methicillin-resistant Staphylococcus aureus M11 assessed as pathological change in heart at 4 to 8 mg/kg measured after 24 hrs by H and E staining based analysis; format: organism-based; conditions: in vivo, dose 4-8 mg/kg
[30] = system: Staphylococcus aureus; assay: Antibacterial activity against methicillin-resistant Staphylococcus aureus M13 incubated for 16 to 20 hrs by broth microdilution method; format: functional; conditions: time 16-20 hrs
[31] = system: Staphylococcus aureus; assay: Antibacterial activity against methicillin-resistant Staphylococcus aureus M11 infected in BALB/c mouse model of Sepsis assessed as reduction in bacterial load in spleen at 20 mg/kg, ip measured after 48 hrs; format: functional
[32] = Binding affinity to phosphatidylglycerol assessed as association constant by ITC analysis
[33] = Toxicity in BALB/c mouse assessed as mortality rate at 40 mg/kg, ip measured for 7 days; format: organism-based; conditions: in vivo, time 7 day, read-out: Activity
[34] = Toxicity in BALB/c mouse assessed as lesions in tissues of organs at 30 mg/kg, ip measured for 7 days by H and E staining based analysis; format: organism-based; conditions: in vivo, 168 h, time 7 day
[35] = system: Staphylococcus aureus; assay: Antibacterial activity against methicillin-resistant Staphylococcus aureus M11 infected in BALB/c mouse model of Sepsis assessed as vacuolar degeneration in liver cells at 10 to 20 mg/kg, ip measured after 48 hrs; format: functional, organism-based; conditions: dose 10-20 mg/kg
[36] = Toxicity in KM mouse assessed as abnormality in heart at 30 mg/kg, sc by H and E staining based analysis; format: organism-based; conditions: in vivo
[37] = system: Staphylococcus aureus; assay: Antibacterial activity against methicillin-resistant Staphylococcus aureus M11 infected in BALB/c mouse model of Sepsis assessed as reduction in serum TNF-alpha level administered intraperitoneally measured after 48 hrs; format: functional, organism-based; conditions: dose 10-20 mg/kg, route ip
[38] = Toxicity in KM mouse assessed as abnormality in kidney at 30 mg/kg, sc by H and E staining based analysis; format: organism-based; conditions: in vivo

## CCCCCNC(=O)C[n+]1ccc(SCCCCCOc2ccc3ccc(=O)oc3c2CC=C(C)C)cc1.[Br-]
[1]
  MIC: 0.5 µg/mL
[2]
  viability at 24 h, 32 times MIC: > 80%
[3]
  Activity: Dose-dependent-effect; Activity Was Observed Higher Than Melittin
[4]
  MIC: 0.5 µg/mL
[5]
  fold change (FC): 1.8
[6]
  Activity: Active
[7]
  MIC: 16 µg/mL
[8]
  Activity: Non-toxic
[9]
  Activity: Dose-dependent-effect
[10]
  Activity: Non-toxic
[11]
  Activity: Non-toxic
[12]
  Activity: 1.882 log10CFU/g
[13]
  MIC: 1 µg/mL
[14]
  MTD at 168 h: 10 mg/kg
[15]
  Activity: Non-toxic
[16]
  Activity: Non-toxic
[17]
  Activity: Dose-dependent-effect
[18]
  MIC: 1 µg/mL
[19]
  fold change (FC): ~2
[20]
  MIC: 0.5 µg/mL
[21]
  Activity: Toxic
[22]
  MIC: 1 µg/mL
[23]
  Activity: Active
[24]
  Activity: Dose-dependent-effect; Compound Has Slightly Greater Efficacy Than Vancomycin
[25]
  MIC: 0.5 µg/mL
[26]
  Activity: 99.985%
[27]
  MIC: 0.5 µg/mL
[28]
  Activity: Active
[29]
  Activity: Non-toxic
[30]
  MIC: 1 µg/mL

## CC(C)=CCc1c(OCCCCSc2cc[n+](CC(=O)N(CC(C)C)CC(C)C)cc2)ccc2ccc(=O)oc12.[Br-]
[1]
  MIC: 0.5 µg/mL
[2]
  viability at 24 h, 32 times MIC: > 80%
[3]
  Activity: Dose-dependent-effect; Activity Was Observed Higher Than Melittin
[4]
  MIC: 0.5 µg/mL
[5]
  fold change (FC): 2
[6]
  Activity: Active
[7]
  MIC: 16 µg/mL
[9]
  Activity: Dose-dependent-effect
[10]
  Activity: Non-toxic
[12]
  Activity: 1.948 log10CFU/g
[31]
  Activity: 4.33 log10CFU/ml
[13]
  MIC: 1 µg/mL
[14]
  MTD at 168 h: 30 mg/kg
[32]
  Ka: 3.53 10^4/M
[33]
  mortality at 168 h: 83.3%
[15]
  Activity: Non-toxic
[16]
  Activity: Non-toxic
[34]
  Activity: Non-toxic
[17]
  Activity: Dose-dependent-effect
[18]
  MIC: 0.5 µg/mL
[19]
  fold change (FC): ~2
[20]
  MIC: 0.5 µg/mL
[35]
  Activity: Active
[36]
  Activity: Non-toxic
[37]
  Activity: Dose-dependent-effect
[22]
  MIC: 1 µg/mL
[23]
  Activity: Active
[24]
  Activity: Dose-dependent-effect; Compound Has Slightly Greater Efficacy Than Vancomycin
[25]
  MIC: 0.5 µg/mL
[38]
  Activity: Non-toxic
[26]
  Activity: 99.994%
[27]
  MIC: 0.5 µg/mL
[28]
  Activity: Active
[29]
  Activity: Non-toxic
[30]
  MIC: 1 µg/mL
